The record followed here is publication PMC5514153, “Targeting PTPRZ inhibits stem cell-like properties and tumorigenicity in glioblastoma cells” (Scientific Reports, 2017).

The assay deals with T1, hPTPRS (Homo sapiens, UniProt Q13332).
T1 construct: The ICRs of PTPRG, PTPRS, and PTPRB and the catalytic domains of PTPN1 and PTPN6; GST (N); made in house; host or cells: Escherichia coli BL21
T1 sequence (Q13332 1304-1948 limits assumed): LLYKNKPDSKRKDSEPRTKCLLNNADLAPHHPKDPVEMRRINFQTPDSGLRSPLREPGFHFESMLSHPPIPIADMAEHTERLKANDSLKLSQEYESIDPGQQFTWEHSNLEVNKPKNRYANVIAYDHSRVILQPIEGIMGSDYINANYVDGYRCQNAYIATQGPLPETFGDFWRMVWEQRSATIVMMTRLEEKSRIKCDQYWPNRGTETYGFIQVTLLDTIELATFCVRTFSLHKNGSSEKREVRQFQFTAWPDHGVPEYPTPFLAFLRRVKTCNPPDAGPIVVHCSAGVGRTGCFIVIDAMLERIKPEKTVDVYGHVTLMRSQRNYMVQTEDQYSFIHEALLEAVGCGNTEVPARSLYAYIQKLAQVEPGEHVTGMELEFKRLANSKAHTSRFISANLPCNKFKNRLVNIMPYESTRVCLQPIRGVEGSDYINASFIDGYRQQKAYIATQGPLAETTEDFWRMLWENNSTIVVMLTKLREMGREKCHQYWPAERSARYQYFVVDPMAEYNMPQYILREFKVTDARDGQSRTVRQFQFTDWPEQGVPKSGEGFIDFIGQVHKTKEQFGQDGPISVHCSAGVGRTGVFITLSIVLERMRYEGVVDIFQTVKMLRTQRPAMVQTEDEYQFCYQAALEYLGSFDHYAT
The assay can be described thus: In vitro PTPase assay (DiFMUP), PTPRS. It is filed as biochemical. Particulars: 60-min preincubation. As to the method: Figure 4 NAZ2329, an allosteric inhibitor of R5 RPTP subfamily members. (A) Structure of NAZ2329. (B) Effect of preincubation of NAZ2329 on its inhibitory activity against PTPRZ. Recombinant human PTPRZ1 enzyme (the whole intracellular region) was premixed with NAZ2329 for the indicated times and followed by addition of a fluorogenic DiFMUP (non-specific PTP substrate, 6,8-difluoro-4-methylumbiliferyl phosphate) to measure PTP inhibitory activity. (C) Time dependence. The PTPRZ1 enzyme was added to the inhibitor–substrate mixture, and the inhibitory activity was determined at each time point relative to the vehicle control. (D) Reversibility of inhibition. […] The mixture was then 20-fold diluted, and recovered PTP activity was expressed as the relative activity compared with the vehicle-treated enzyme. […] PTPRZ1 enzymes were preincubated with NAZ2329 for 60 min, and the PTP activity was measured using DiFMUP. […]
Recombinant proteins corresponding to the entire intracellular regions (ICRs) of PTPRZ1, PTPRA, and PTPRM were expressed using a baculovirus-silkworm expression system, and purified as described. The ICRs of PTPRG, PTPRS, and PTPRB and the catalytic domains of PTPN1 and PTPN6 were expressed as glutathione-S-transferase (GST) fusion proteins from each pGEX plasmid in Escherichia coli strain BL21 (ref. [6]). […]

For `CCOc1ccc(C(F)(F)F)cc1CSc1ccsc1C(=O)NS(=O)(=O)c1ccccc1` [NAZ2329], half-maximal inhibition (IC50) required 23.7 µM.

Usually IC50 stands for the concentration that gives 50% inhibition.
